Source: ChEMBL document CHEMBL2384988, “Discovery of 2-{3-[2-(1-isopropyl-3-methyl-1H-1,2-4-triazol-5-yl)-5,6-dihydrobenzo[f]imidazo[1,2-d][1,4]oxazepin-9-yl]-1H-pyrazol-1-yl}-2-methylpropanamide (GDC-0032): a β-sparing phosphoinositide 3-kinase inhibitor with high unbound exposure and robust in vivo antitumor activity” (J Med Chem, 2013)
Values after ≈ are worked out from the molar mass of the structure shown.

Tests used:
[1] = Kinetic solubility of the compound; type: physicochemical; details: read-out: Kinetic_solubility
[2] = Intrinsic clearance in mouse liver microsomes after 1 hr by LC-MS/MS analysis; type: ADME, Microsome; details: read-out: CLH
[3] = target: T1, Phosphatidylinositol 4,5-bisphosphate 3-kinase catalytic subunit alpha isoform (Homo sapiens, UniProt P42336)
T1 sequence (P42336 whole entry, canonical isoform): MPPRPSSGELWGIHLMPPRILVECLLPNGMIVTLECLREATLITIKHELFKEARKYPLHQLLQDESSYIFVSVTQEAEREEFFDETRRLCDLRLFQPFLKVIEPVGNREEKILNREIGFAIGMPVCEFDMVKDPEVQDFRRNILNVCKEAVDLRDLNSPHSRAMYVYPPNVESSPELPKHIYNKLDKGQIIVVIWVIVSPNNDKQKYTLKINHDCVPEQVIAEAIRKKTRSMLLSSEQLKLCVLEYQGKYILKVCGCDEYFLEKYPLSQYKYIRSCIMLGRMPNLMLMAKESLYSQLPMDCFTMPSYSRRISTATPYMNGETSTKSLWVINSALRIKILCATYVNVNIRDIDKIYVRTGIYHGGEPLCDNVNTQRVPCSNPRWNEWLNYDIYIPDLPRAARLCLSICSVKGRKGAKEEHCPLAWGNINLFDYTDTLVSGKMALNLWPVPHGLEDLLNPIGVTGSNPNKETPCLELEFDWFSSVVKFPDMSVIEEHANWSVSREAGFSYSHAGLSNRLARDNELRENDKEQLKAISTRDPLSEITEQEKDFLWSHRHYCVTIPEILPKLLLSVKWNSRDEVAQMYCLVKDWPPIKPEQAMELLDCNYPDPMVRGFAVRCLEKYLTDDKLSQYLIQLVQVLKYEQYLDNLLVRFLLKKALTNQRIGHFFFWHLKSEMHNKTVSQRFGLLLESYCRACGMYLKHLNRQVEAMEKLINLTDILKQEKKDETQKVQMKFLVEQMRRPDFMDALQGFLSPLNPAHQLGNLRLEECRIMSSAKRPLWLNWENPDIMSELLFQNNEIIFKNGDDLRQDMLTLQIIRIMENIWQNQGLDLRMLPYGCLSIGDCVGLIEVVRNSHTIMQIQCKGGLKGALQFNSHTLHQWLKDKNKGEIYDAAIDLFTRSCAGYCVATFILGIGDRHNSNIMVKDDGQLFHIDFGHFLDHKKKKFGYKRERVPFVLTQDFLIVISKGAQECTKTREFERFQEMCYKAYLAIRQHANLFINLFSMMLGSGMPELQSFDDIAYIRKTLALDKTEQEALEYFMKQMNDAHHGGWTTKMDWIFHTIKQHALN
Description: Inhibition of PI3Kalpha (unknown origin) assessed as 3,4,5-inositoltriphosphate formation after 30 mins by fluorescence polarization assay

cells = details: Homo sapiens
Description: Cytotoxicity against human MCF7-neo/Her2 cells after 3 to 4 days by CellTitre-Glo assay

Mus musculus [4] = experiment: Toxicity in nude mouse xenografted with human MCF7-neo/Her2 cells assessed as body weight loss relative to vehicle-treated control; type: organism-based
Mus musculus [5] = experiment: Unbound AUC in nude mouse at 100 mg/kg, po; type: ADME, organism-based; design: dose 100 mg/kg, route oral; details: in vivo
[6] = AUCtotal in nude mouse at 100 mg/kg, po; type: ADME, organism-based; design: time AUCmax, dose 100 mg/kg, route oral; details: plasma
[7] = Oral bioavailability in mouse; type: ADME, organism-based; details: in vivo
[8] = Plasma protein binding in human; type: ADME, cell-free; details: read-out: PPB (converted)
[9] = Plasma protein binding in rat; type: ADME, cell-free; details: read-out: PPB (converted)
[10] = target: Serine/threonine-protein kinase mTOR (Homo sapiens, UniProt P42345); experiment: Inhibition of mTOR (unknown origin)
[11] = target: DNA-dependent protein kinase catalytic subunit (Homo sapiens, UniProt P78527); experiment: Inhibition of DNA-dependent protein kinase (unknown origin)
[12] = target: Phosphatidylinositol 4-phosphate 3-kinase C2 domain-containing subunit alpha (Homo sapiens, UniProt O00443); experiment: Inhibition of PI3KC2alpha (unknown origin)
Sequence of Phosphatidylinositol 4-phosphate 3-kinase C2 domain-containing subunit alpha (O00443 whole entry, the tested form may be a part): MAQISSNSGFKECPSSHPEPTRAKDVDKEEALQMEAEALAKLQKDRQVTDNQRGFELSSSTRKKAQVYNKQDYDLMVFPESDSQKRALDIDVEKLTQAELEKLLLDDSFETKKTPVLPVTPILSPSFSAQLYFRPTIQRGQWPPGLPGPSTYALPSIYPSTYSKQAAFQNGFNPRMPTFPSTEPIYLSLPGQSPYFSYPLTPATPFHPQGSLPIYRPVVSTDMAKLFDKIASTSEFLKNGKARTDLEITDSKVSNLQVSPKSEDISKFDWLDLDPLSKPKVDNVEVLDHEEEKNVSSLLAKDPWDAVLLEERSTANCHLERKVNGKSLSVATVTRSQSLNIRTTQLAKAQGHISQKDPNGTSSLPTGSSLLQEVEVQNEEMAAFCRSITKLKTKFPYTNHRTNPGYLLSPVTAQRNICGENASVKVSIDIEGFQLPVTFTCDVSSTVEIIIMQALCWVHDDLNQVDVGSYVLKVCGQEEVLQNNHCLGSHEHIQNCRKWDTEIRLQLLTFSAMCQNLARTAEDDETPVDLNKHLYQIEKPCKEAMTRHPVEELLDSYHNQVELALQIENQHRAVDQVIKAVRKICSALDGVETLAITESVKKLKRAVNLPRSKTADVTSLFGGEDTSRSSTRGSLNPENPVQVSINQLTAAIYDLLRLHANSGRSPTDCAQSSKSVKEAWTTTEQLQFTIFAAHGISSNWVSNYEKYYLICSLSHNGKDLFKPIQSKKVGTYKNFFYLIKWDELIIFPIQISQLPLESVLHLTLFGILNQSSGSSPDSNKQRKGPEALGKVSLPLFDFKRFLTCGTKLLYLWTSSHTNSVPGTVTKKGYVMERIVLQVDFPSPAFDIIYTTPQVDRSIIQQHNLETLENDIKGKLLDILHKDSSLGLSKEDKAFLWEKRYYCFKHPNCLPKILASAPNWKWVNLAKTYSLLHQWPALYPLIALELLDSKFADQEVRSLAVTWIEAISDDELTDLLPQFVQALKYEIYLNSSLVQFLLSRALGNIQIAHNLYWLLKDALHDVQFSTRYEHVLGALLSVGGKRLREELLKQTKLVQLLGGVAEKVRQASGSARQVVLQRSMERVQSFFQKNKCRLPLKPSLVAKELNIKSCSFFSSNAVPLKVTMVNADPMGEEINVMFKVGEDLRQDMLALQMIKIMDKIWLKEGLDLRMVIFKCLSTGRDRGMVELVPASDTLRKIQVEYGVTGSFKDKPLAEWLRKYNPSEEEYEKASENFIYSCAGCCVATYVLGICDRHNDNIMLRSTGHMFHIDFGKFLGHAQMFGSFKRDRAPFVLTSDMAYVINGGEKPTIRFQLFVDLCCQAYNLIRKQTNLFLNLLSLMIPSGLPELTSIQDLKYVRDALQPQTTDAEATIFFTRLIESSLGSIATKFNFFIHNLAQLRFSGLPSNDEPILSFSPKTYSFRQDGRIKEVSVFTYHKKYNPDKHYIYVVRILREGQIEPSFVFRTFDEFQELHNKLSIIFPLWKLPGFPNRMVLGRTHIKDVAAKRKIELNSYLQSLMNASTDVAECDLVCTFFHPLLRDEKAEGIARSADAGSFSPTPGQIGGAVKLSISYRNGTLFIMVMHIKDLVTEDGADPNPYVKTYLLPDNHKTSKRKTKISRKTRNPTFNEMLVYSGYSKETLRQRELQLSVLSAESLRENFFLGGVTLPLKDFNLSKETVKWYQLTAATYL

PC-3 = experiment: Cytotoxicity against human PC3 cells; type: functional, cell-based
[13] = Oral bioavailability in Sprague-Dawley rat; type: ADME, organism-based; details: in vivo
[14] = Plasma clearance in Sprague-Dawley rat; type: ADME, organism-based
[15] = target: Phosphatidylinositol 3-kinase catalytic subunit type 3 (Homo sapiens, UniProt Q8NEB9); experiment: Inhibition of human VPS34
Mus musculus [16] = experiment: In vivo inhibition of PI3Kalpha in human MCF7-neo/Her2 cells xenografted in nude mouse assessed as reduction in AKT phosphorylation at S473 at 2.8 mg/kg, po measured after 1 hr; type: functional; design: scale not given: the % may be the effect or the level left
[17] = target: Phosphatidylinositol 4-phosphate 3-kinase C2 domain-containing subunit beta (Homo sapiens, UniProt O00750); experiment: Inhibition of PI3KC2beta (unknown origin)
Sequence of Phosphatidylinositol 4-phosphate 3-kinase C2 domain-containing subunit beta (O00750 whole entry, the tested form may be a part): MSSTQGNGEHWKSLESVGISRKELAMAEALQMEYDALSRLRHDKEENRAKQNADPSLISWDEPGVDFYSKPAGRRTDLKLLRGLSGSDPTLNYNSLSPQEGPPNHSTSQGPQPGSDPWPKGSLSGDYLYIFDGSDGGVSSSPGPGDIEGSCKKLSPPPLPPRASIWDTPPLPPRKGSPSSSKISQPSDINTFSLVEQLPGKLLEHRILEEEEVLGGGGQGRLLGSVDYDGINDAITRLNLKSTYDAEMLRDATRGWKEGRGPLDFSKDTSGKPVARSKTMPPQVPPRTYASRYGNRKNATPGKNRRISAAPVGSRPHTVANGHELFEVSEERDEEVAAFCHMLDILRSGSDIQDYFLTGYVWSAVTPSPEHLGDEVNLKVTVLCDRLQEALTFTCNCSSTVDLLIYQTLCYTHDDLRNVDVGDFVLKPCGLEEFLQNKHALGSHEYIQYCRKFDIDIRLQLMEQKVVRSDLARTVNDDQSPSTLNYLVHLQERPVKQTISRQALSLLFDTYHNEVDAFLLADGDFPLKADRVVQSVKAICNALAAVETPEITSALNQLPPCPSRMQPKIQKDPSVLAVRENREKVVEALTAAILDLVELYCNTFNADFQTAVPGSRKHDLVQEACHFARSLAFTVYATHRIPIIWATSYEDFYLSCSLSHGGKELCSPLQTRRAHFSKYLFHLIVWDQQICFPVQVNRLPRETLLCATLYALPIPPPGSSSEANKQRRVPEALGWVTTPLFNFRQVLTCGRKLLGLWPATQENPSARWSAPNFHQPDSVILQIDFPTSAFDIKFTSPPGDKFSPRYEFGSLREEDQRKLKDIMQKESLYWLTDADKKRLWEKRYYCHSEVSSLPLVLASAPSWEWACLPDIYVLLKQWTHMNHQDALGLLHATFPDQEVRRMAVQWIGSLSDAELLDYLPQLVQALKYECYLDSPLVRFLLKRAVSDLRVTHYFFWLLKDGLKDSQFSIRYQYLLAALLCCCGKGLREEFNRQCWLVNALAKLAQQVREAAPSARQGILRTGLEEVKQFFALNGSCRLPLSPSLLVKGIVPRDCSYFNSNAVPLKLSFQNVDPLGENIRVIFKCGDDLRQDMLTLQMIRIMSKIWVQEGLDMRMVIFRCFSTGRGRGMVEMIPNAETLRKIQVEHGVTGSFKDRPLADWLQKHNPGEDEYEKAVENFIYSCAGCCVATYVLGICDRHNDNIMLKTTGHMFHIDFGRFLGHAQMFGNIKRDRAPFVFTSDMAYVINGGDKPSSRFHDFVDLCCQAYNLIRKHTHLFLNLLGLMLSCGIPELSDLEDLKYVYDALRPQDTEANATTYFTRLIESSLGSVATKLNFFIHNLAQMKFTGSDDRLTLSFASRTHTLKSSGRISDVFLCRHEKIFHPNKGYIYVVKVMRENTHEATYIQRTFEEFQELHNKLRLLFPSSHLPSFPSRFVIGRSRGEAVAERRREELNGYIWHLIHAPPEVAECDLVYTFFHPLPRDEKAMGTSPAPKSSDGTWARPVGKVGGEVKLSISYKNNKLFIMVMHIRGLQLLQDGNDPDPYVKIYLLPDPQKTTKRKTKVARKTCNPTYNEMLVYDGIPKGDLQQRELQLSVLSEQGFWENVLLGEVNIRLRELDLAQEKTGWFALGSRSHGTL

Mus musculus [18] = experiment: Unbound AUC in nude mouse at 1 mg/kg, iv and 25 mg/kg, po; type: ADME, organism-based; details: in vivo
[19] = (§1) AUCtotal in nude mouse at 1 mg/kg, iv and 25 mg/kg, po; type: ADME, organism-based, Plasma; details: nude, plasma
Mus musculus [20] = experiment: Unbound clearance in nude mouse at 1 mg/kg, iv and 25 mg/kg, po; type: ADME, organism-based; details: in vivo
Plasma = experiment: (§2) Plasma protein binding in mouse by equilibrium dialysis; type: ADME, cell-free
[21] = Plasma clearance in nude mouse at 1 mg/kg, iv and 25 mg/kg, po; type: ADME, organism-based
[22] = target: T2, Phosphatidylinositol 4,5-bisphosphate 3-kinase catalytic subunit delta isoform (Homo sapiens) (UniProt O00329); details: 1 uM
T2 sequence (whole entry): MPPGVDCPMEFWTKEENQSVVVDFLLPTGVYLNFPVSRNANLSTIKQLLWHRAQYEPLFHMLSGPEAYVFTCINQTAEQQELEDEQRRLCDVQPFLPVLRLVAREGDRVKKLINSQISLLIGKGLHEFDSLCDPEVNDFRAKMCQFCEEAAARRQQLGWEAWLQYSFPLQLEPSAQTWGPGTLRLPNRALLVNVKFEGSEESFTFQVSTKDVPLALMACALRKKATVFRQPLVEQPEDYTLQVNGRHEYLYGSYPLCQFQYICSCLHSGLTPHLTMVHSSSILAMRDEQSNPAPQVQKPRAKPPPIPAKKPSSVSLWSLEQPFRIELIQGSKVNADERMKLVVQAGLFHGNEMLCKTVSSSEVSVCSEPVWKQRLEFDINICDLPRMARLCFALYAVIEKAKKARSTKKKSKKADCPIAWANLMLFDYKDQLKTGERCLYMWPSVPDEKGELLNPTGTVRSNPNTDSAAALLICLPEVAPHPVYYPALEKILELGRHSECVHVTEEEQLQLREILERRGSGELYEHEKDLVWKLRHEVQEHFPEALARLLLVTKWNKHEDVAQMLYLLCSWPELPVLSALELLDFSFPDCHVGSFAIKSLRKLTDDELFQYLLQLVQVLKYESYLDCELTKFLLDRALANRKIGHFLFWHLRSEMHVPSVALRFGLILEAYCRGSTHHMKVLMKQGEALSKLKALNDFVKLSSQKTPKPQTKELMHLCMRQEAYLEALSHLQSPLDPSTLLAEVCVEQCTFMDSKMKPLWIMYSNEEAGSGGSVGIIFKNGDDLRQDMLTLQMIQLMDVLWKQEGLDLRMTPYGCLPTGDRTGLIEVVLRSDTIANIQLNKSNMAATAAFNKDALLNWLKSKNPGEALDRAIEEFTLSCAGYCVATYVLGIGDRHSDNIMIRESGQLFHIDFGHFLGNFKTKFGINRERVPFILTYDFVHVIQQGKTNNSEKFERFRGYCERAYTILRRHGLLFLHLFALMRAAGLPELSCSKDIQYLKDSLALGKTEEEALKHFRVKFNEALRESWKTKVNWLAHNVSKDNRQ
Description: Inhibition of PI3Kdelta (unknown origin) at 1 uM

[23] = target: T1, Phosphatidylinositol 4,5-bisphosphate 3-kinase catalytic subunit alpha isoform; details: 1 uM
Description: Inhibition of PI3Kalpha (unknown origin) at 1 uM

animal or person [24] = details: Homo sapiens, po, 480 h, read-out: TGI
Description: Antitumor activity against human MCF7-neo/Her2 cells xenografted in nude mouse at 22.5 mg/kg, po qd for 20 days relative to vehicle-treated control

animal or person [25] = details: Homo sapiens, po, 480 h, read-out: TGI; remark: listed apart in the source
Description: Antitumor activity against human MCF7-neo/Her2 cells xenografted in nude mouse at 11.25 mg/kg, po qd for 20 days relative to vehicle-treated control

[26] = as §2; type: ADME, cell-free; details: read-out: PPB (converted)
[27] = target: T1, Phosphatidylinositol 4,5-bisphosphate 3-kinase catalytic subunit alpha isoform; remark: listed apart in the source
Description: Inhibition of PI3Kalpha in human MCF7-neo/Her2 cells assessed as reduction of AKT phosphorylation at S473

Mus musculus [28] = experiment: as §1; type: ADME, organism-based, Plasma; details: in vivo

For CC(C)n1ncnc1-c1cn2c(n1)-c1ccc(-c3cn[nH]c3)cc1OCC2, the solubility kinetic [1] was under 1 µM, the CLint scaled [2] was 550 mL/min/kg and the Ki [3] was 0.00031 µM. The IC50 (cells) was 0.218 µM.

Compound CS(=O)(=O)N1CCN(Cc2cc3nc(-c4cccc5[nH]ncc45)nc(N4CCOCC4)c3s2)CC1 [PICTILISIB] has an Activity (Mus musculus [4]) of under 10%, a fAUC (Mus musculus [5]) of 3.5 µM·h and an AUC [6] of 80.3 µM·h.

Compound Cc1nc(-c2cn3c(n2)-c2ccc(-c4cnn(C(C)(C)C(N)=O)c4)cc2OCC3)n(C(C)C)n1 [TASELISIB] has a bioavailability [7] of 100%, a fraction unbound [8] of 0.24 and a fraction unbound [9] of 0.02. It also gave a Ki [10] of 1.2 µM, an IC50 [11] of over 4.8 µM and an IC50 [12] of over 10 µM. For the same compound, the EC50 (PC-3) was 0.571 µM, the bioavailability [13] was 99% and the clearance [14] was 1.8 mL/min/kg. For the same compound, the IC50 [15] was 0.374 µM, the Activity (Mus musculus [16]) was 59% and the Activity (Mus musculus [4]) was under 10%. The IC50 [17] was 0.292 µM, the fAUC (Mus musculus [18]) was 42 µM·h and the AUC [19] was 388 µM·h. The CL free (Mus musculus [20]) was 25 mL/min/kg, the PPB (Plasma) was 89.3% and the clearance [21] was 2.7 mL/min/kg. The solubility kinetic [1] was 33.1 µM (≈ 15.2 µg/mL), the CLint scaled [2] was 41.1 mL/min/kg and the inhibition [22] was 97.9%. For the same compound, the inhibition [23] was 98.6%, the IC50 (cells) was 0.025 µM and the inhibition in vivo at 22.5 mg/kg (animal or person [24]) was 123%. The inhibition in vivo at 11.25 mg/kg (animal or person [25]) was 103%.

CC(C)n1ncnc1-c1nc2c(s1)CCOc1cc(-c3cnn(CCO)c3)ccc1-2 gave a fAUC (Mus musculus [5]) of 0.55 µM·h, an AUC [6] of 275 µM·h and a fAUC (Mus musculus [18]) of 0.22 µM·h. For the same compound, the AUC [19] was 112 µM·h, the CL free (Mus musculus [20]) was 4750 mL/min/kg and the fraction unbound [26] was 0.002. The IC50 (cells) was 0.195 µM.

In the case of Cc1nc(-c2cn3c(n2)-c2ccc(-c4cnn(CCO)c4)cc2OCC3)n(C)n1, the solubility kinetic [1] is reported as 2.4 µM (≈ 0.939 µg/mL), the CLint scaled [2] is reported as 100 mL/min/kg and the Ki [3] is reported as 0.0028 µM. It also gave an IC50 (cells) of 1.4 µM.

In the case of Cc1nc(-c2cn3c(n2)-c2ccc(-c4cnn(C5CN(C(=O)[C@H](C)O)C5)c4)cc2OCC3)n(C(C)C)n1, the solubility kinetic [1] is reported as 78.2 µM (≈ 39.3 µg/mL), the CLint scaled [2] is reported as 23 mL/min/kg and the IC50 [27] is reported as 0.00093 µM. It also gave a Ki [3] of 0.00034 µM and an IC50 (cells) of 0.102 µM.

Compound Cc1nc(-c2cn3c(n2)-c2ccc(-c4cnn(C5CN(CCO)C5)c4)cc2OCC3)n(C(C)C)n1 has a solubility kinetic [1] of 109 µM (≈ 51.7 µg/mL), a CLint scaled [2] of 58 mL/min/kg and an IC50 [27] of 0.0014 µM. For the same compound, the Ki [3] was 0.00011 µM and the IC50 (cells) was 0.12 µM.

CC(C)n1ncnc1-c1cn2c(n1)-c1ccc(-c3cnn(CC(C)(C)O)c3)cc1OCC2 gave a fAUC (Mus musculus [18]) of 2.7 µM·h, an AUC (Mus musculus [28]) of 156 µM·h and a CL free (Mus musculus [20]) of 282 mL/min/kg. The fraction unbound [26] was 0.017, the solubility kinetic [1] was 12.4 µM (≈ 5.38 µg/mL) and the CLint scaled [2] was 44.3 mL/min/kg. It also gave an IC50 [27] of 0.0094 µM, a Ki [3] of 0.00014 µM and an IC50 (cells) of 0.081 µM.

In the case of Cc1nc(-c2cn3c(n2)-c2ccc(-c4cnn(C)c4)cc2OCC3)n(C(C)C)n1, the solubility kinetic [1] is reported as 2 µM (≈ 0.779 µg/mL), the CLint scaled [2] is reported as 82 mL/min/kg and the IC50 [27] is reported as 0.00071 µM. The Ki [3] was 0.00029 µM and the IC50 (cells) was 0.157 µM.

OCCn1cc(-c2ccc3c(c2)OCCn2cc(-c4ncnn4CC(F)(F)F)nc2-3)cn1 showed a solubility kinetic [1] of 7.6 µM (≈ 3.39 µg/mL), a CLint scaled [2] of 28 mL/min/kg and an IC50 [27] of 0.0029 µM. The Ki [3] was under 0.001 µM and the IC50 (cells) was 0.066 µM.

With CC(C)n1ncnc1-c1cn2c(n1)-c1ccc(-c3cnn(CCO)c3)cc1OCC2 the solubility kinetic [1] was 5.1 µM (≈ 2.07 µg/mL), the CLint scaled [2] was 42.9 mL/min/kg and the IC50 [27] was 0.0054 µM. The Ki [3] was 0.00017 µM and the IC50 (cells) was 0.092 µM.

Work on Cc1n[nH]c(-c2cn3c(n2)-c2ccc(-c4cnn(CCO)c4)cc2OCC3)n1 yielded a solubility kinetic [1] of 95.8 µM (≈ 36.2 µg/mL), a Ki [3] of 0.0211 µM and an IC50 (cells) of over 10 µM.

Cc1nc(-c2cn3c(n2)-c2ccc(-c4cnn(CCO)c4)cc2OCC3)n(C(C)C)n1 gave a fAUC (Mus musculus [18]) of 5.2 µM·h, an AUC (Mus musculus [28]) of 291 µM·h and a CL free (Mus musculus [20]) of 83 mL/min/kg. It also gave a fraction unbound [26] of 0.018, a CLint scaled [2] of 68.1 mL/min/kg and an IC50 [27] of 0.0045 µM. It also gave an IC50 (cells) of 0.138 µM.

For Cc1nc(-c2cn3c(n2)-c2ccc(-c4cnn(CCN5CCOCC5)c4)cc2OCC3)n(C(C)C)n1, the solubility kinetic [1] was 52.3 µM (≈ 25.6 µg/mL), the CLint scaled [2] was 89.4 mL/min/kg and the IC50 [27] was 0.035 µM. It also gave a Ki [3] of 0.0003 µM and an IC50 (cells) of 0.248 µM.
